Reference: US12371428B2 (Exelixis, Inc., priority 2019, dated 2025)

Assays:
[1] = target: Human KDR (residues K790-V1356) (Homo sapiens (Human), UniProt P35968); assay: Human KDR kinase assay, 33P-phosphoryl transfer radiometric (Example B-1, KinaseProfiler); type: biochemical; details: protocol of Example B-1 (compounds 21-27, 41-47, 99, 104)
Experimental: Kinase activity and compound inhibition were investigated using the ^33P-Phosphoryl transfer radiometric kinase assay, performed using the KinaseProfiler™ service of Eurofins Pharma Discovery Services UK Limited. Dose-response experiments were performed using nine compound concentrations in a 96-well microtiter plate. For each assay, all compounds were prepared to a 50× final assay concentration (50 μM) in 100% DMSO, then diluted in a half-log series, with the final top concentration at 1 μM. This working stock of the compound was added to the assay well as the first component in the reaction, followed by the remaining components as detailed in the following assay protocols below. The positive control wells (100% kinase activity) contain all components of the reaction including 2% DMSO (control for solvent effects), except the compound of interest. Blank wells contain all components of the reaction, with the reference inhibitor, staurosporine. This reference compound was used to abolish kinase activity and generated the 0% kinase activity base-line. IC50 values were calculated by nonlinear regression analysis using the sigmoidal dose-response (variable slope) curve fit on XLFit version 5.3 (ID Business Solutions).
Example B-1: Human KDR (residues K790-V1356, 55 nM) was incubated with 8 mM MOPS pH 7.0, 0.2 mM EDTA, 0.33 mg/mL myelin basic protein, 10 mM magnesium acetate, and 10 μM [γ-^33P-ATP]. The reaction was initiated by the addition of the Mg/ATP mix. After incubation for 40 minutes at room temperature, the reaction was stopped by the addition of phosphoric acid to a concentration of 0.5%. A reaction aliquot of 10 μL was then spotted onto a P30 filtermat and washed four times for 4 minutes in 0.425% phosphoric acid and once in methanol prior to drying and scintillation counting. Incorporated ^33P was measured using the Wallac Microbeta scintillation counter (Perkin Elmer).

[2] = target: AXL (phospho-AXL, Gas6-stimulated A-172 glioblastoma cells) (Homo sapiens (Human), UniProt P30530); assay: AXL autophosphorylation ELISA in A-172 cells (Example E); type: cell-based; details: cellular activity; AXL autophosphorylation ELISA in A-172 cells; read-out: Axl IC50
Chain of AXL (phospho-AXL, Gas6-stimulated A-172 glioblastoma cells) (P30530 26-894): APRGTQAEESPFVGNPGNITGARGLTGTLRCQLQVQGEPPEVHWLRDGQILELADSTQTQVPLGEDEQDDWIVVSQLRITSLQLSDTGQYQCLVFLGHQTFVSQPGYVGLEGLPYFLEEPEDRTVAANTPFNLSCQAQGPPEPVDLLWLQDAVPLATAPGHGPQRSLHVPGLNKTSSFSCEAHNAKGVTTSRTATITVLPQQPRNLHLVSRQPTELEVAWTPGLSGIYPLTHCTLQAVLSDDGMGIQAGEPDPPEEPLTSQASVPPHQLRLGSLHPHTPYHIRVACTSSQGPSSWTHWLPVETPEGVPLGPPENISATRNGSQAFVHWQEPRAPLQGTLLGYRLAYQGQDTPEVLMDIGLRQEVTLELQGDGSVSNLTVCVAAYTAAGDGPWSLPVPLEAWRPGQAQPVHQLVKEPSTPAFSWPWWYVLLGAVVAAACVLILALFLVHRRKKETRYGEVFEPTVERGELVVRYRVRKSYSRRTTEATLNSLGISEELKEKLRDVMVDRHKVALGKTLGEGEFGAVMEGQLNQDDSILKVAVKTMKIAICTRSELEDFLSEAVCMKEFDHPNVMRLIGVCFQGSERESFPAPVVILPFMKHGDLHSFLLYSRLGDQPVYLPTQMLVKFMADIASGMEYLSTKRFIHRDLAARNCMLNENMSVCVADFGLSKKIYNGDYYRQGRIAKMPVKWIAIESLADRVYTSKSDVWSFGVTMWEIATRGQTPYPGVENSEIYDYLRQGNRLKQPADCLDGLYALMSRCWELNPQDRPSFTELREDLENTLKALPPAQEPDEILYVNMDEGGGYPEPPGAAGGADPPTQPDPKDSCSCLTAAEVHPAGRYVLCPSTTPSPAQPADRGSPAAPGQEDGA
Procedure, shortened: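 Phospho-AXL was measured by ELISA in lysates of Gas6-stimulated A-172 cells, starved 24 h in serum-free medium and exposed 1 h to an 8-point compound dilution at 0.3% DMSO.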

[3] = target: Human AXL (residues 464-885) (Homo sapiens (Human), UniProt P30530); assay: Human AXL kinase assay, HTRF KinEase (Example A-2); type: biochemical; details: protocol of Example A-2 (other compounds)
Chain of Human AXL (residues 464-885) (P30530 473-894): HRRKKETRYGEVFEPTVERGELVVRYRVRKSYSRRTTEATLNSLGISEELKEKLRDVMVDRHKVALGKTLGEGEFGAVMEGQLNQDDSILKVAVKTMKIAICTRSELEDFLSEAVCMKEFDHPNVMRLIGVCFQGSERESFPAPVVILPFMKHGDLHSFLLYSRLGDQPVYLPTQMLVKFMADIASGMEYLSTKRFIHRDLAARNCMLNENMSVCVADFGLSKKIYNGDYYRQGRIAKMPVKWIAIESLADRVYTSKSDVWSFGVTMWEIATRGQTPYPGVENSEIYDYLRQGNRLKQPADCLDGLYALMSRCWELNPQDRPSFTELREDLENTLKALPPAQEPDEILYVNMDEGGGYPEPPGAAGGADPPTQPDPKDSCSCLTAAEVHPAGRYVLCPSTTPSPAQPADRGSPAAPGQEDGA
Experimental: Kinase activity and compound inhibition were also investigated using the HTRF® KinEase assay (Cisbio Cat #62TKOPEB) per manufacturer's instructions. In short, compounds were delivered in 300 nL volumes at 10 different concentrations in DMSO (3% final) to empty 384-well assay plates (Corning cat #3824). A mixture of enzyme, […] biotynlated peptide substrate, and buffer in 10 μL volume was added. The assay was started upon the addition of ATP (at Km). The 10 μL reaction was incubated at room temperature. The reaction was stopped upon the addition of detection buffer containing streptavidin-XL665 ([…]) and TK antibody-Eu3+(5 L).
Kinase activity normalized to DMSO (100% activity) and reference compound at […] and (0% activity) was calculated using the fluorescence ratio […]. IC50 values were calculated by nonlinear regression analysis using a 4-parameter logistic curve fit in ActivityBase XE (IDBS).
The mixture was added to the pre-plated compounds. […] The reaction was incubated at room temperature for 50 min and stopped upon the addition of SA-XL665 and TK-antibody both diluted in EDTA-containing kinase detection buffer (Cisbio). The kinase activity was calculated as stated above and the IC50 values were reported.

Chain of Human KDR (residues K790-V1356) (P35968 790-1356): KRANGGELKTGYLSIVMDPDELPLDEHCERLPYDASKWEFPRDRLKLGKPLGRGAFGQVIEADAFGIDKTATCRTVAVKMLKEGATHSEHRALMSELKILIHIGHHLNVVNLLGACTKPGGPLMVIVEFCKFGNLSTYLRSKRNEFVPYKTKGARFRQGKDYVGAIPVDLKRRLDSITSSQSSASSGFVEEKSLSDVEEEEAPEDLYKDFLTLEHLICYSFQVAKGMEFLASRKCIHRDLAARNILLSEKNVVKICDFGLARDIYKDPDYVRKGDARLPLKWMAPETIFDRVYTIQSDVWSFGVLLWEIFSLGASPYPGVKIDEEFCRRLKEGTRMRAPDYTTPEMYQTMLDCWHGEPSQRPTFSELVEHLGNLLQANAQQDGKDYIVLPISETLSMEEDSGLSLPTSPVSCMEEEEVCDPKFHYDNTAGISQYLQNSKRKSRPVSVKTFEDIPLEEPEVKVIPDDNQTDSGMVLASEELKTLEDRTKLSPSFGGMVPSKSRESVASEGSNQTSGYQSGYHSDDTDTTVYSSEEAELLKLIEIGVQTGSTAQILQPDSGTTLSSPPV

Structure (SMILES)	IC50 [1] [nM]	IC50 [2] [nM]	IC50 [3] [nM]
COc1cc2nccc(Oc3ccc(NC(=O)c4cn(C(C)C)c(C)c(-c5ccc(F)cc5)c4=O)cc3F)c2nc1OC [Compound 21, N-[4-[(6,7-Dimethoxy-1,5-naphthyridin-4-yl)oxy]-3-fluorophenyl]-5-(4-fluorophenyl)-6-methyl-4-oxo-1-propan-2-ylpyridine-3-carboxamide]	< 100	–	–
COc1cc2nccc(Oc3ccc(NC(=O)c4cn(C(C)C)c(C)c(-c5ccc(F)cc5)c4=O)cc3F)c2cc1OC [Compound 22, N-[4-(6,7-Dimethoxyquinolin-4-yl)oxy-3-fluorophenyl]-5-(4-fluorophenyl)-6-methyl-4-oxo-1-propan-2-ylpyridine-3-carboxamide]	< 100	–	–
COc1cc2nccc(Oc3ccc(NC(=O)c4cn(C(C)C)c(C)c(-c5ccc(Cl)c(Cl)c5)c4=O)cc3F)c2cc1OC [Compound 23, 5-(3,4-Dichlorophenyl)-N-[4-(6,7-dimethoxyquinolin-4-yl)oxy-3-fluorophenyl]-6-methyl-4-oxo-1-propan-2-ylpyridine-3-carboxamide]	< 100	–	–
COc1cc2nccc(Oc3ccc(NC(=O)c4cn(C(C)C)c(C)c(-c5ccc(F)c(Cl)c5)c4=O)cc3F)c2nc1OC [Compound 24, 5-(3-Chloro-4-fluorophenyl)-N-[4-[(6,7-dimethoxy-1,5-naphthyridin-4-yl)oxy]-3-fluorophenyl]-6-methyl-4-oxo-1-propan-2-ylpyridine-3-carboxamide]	< 100	–	–
COc1cc2nccc(Oc3ccc(NC(=O)c4cn(C(C)C)c(C)c(-c5ccc(Cl)c(Cl)c5)c4=O)cc3F)c2nc1OC [Compound 25, 5-(3,4-Dichlorophenyl)-N-[4-[(6,7-dimethoxy-1,5-naphthyridin-4-yl)oxy]-3-fluorophenyl]-6-methyl-4-oxo-1-propan-2-ylpyridine-3-carboxamide]	< 100	–	–
COc1cc2nccc(Oc3ccc(NC(=O)c4cn(C5CCCC5)c(C)c(-c5ccc(F)cc5)c4=O)cc3F)c2nc1OC [Compound 26]	< 100	–	–
COc1cc2nccc(Oc3ccc(NC(=O)c4cn(C5CCCC5)c(C)c(-c5ccc(F)c(Cl)c5)c4=O)cc3F)c2nc1OC [Compound 27, 5-(3-Chloro-4-fluorophenyl)-1-cyclopentyl-N-[4-[(6,7-dimethoxy-1,5-naphthyridin-4-yl)oxy]-3-fluorophenyl]-6-methyl-4-oxopyridine-3-carboxamide]	< 100	–	–
COc1cc2nccc(Oc3ccc(NC(=O)c4cn(C5CC5)cc(-c5ccc(F)cc5)c4=O)cc3F)c2nc1OC [Compound 41, 1-Cyclopropyl-N-[4-[(6,7-dimethoxy-1,5-naphthyridin-4-yl)oxy]-3-fluorophenyl]-5-(4-fluorophenyl)-4-oxopyridine-3-carboxamide]	< 100	–	–
COc1cc2nccc(Oc3ccc(NC(=O)c4cncc(-c5ccc(F)cc5)c4O)cc3F)c2nc1OC [Compound 42, N-[4-[(6,7-Dimethoxy-1,5-naphthyridin-4-yl)oxy]-3-fluorophenyl]-5-(4-fluorophenyl)-4-hydroxypyridine-3-carboxamide]	< 100	–	–
COc1cc2nccc(Oc3ccc(NC(=O)c4cn(C(C)C)cc(-c5ccc(F)cc5)c4=O)cc3F)c2cc1OC [Compound 43, N-[4-(6,7-Dimethoxyquinolin-4-yl)oxy-3-fluorophenyl]-5-(4-fluorophenyl)-4-oxo-1-propan-2-ylpyridine-3-carboxamide]	< 100	–	–
COc1cc2nccc(Oc3ccc(NC(=O)c4cn(C(C)C)cc(-c5ccc(F)cc5)c4=O)cc3F)c2nc1OC [Compound 44, N-[4-[(6,7-Dimethoxy-1,5-naphthyridin-4-yl)oxy]-3-fluorophenyl]-5-(4-fluorophenyl)-4-oxo-1-propan-2-ylpyridine-3-carboxamide]	< 100	–	–
COc1cc2nccc(Oc3ccc(NC(=O)c4cn(C)cc(-c5ccc(F)cc5)c4=O)cc3F)c2nc1OC [Compound 45, N-[4-[(6,7-Dimethoxy-1,5-naphthyridin-4-yl)oxy]-3-fluorophenyl]-5-(4-fluorophenyl)-1-methyl-4-oxopyridine-3-carboxamide]	< 100	–	–
COc1cc2nccc(Oc3ccc(NC(=O)c4cn(C5CCCC5)cc(-c5ccc(F)cc5)c4=O)cc3F)c2nc1OC [Compound 46, 1-Cyclopentyl-N-[4-[(6,7-dimethoxy-1,5-naphthyridin-4-yl)oxy]-3-fluorophenyl]-5-(4-fluorophenyl)-4-oxopyridine-3-carboxamide]	< 100	–	–
COc1cc2nccc(Oc3ccc(NC(=O)c4cn(C5COC5)cc(-c5ccc(F)cc5)c4=O)cc3F)c2nc1OC [Compound 47, N-[4-[(6,7-Dimethoxy-1,5-naphthyridin-4-yl)oxy]-3-fluorophenyl]-5-(4-fluorophenyl)-1-(oxetan-3-yl)-4-oxopyridine-3-carboxamide]	< 100	–	–
CNc1ncc(C(=O)Nc2ccc(Oc3ccnc4cc(OC)c(OC)nc34)c(F)c2)c(=O)n1-c1ccc(F)cc1 [Compound 99, N-[4-[(6,7-Dimethoxy-1,5-naphthyridin-4-yl)oxy]-3-fluorophenyl]-1-(4-fluorophenyl)-2-(methylamino)-6-oxopyrimidine-5-carboxamide]	< 100	–	–
COc1cc2nccc(Oc3ccc(NC(=O)c4c(C)nc(C)c(-c5ccc(F)cc5)c4O)cc3F)c2nc1OC [Compound 154, N-[4-[(6,7-Dimethoxy-1,5-naphthyridin-4-yl)oxy]-3-fluorophenyl]-5-(4-fluorophenyl)-4-hydroxy-2,6-dimethylpyridine-3-carboxamide]	–	< 100	< 100
COc1cnc2c(Oc3ccc(NC(=O)c4cn(C)c(C)c(-c5ccc(F)cc5C)c4=O)cc3)ccnc2c1 [Compound 187, 5-(4-Fluoro-2-methylphenyl)-N-[4-[(7-methoxy-1,5-naphthyridin-4-yl)oxy]phenyl]-1,6-dimethyl-4-oxopyridine-3-carboxamide]	–	< 100	< 100
COc1cc2nccc(Oc3ccc(NC(=O)c4ccc(C)n(-c5ccc(F)cc5)c4=O)cc3F)c2nc1OC [Compound 254, N-[4-[(6,7-Dimethoxy-1,5-naphthyridin-4-yl)oxy]-3-fluorophenyl]-1-(4-fluorophenyl)-6-methyl-2-oxopyridine-3-carboxamide]	–	< 100	< 100
COc1cc2nccc(Oc3ccc(NC(=O)c4cn(CC(F)(F)F)c(C)c(-c5ccc(F)cc5)c4=O)cc3)c2cc1OC [Compound 260, N-[4-(6,7-Dimethoxyquinolin-4-yl)oxyphenyl]-5-(4-fluorophenyl)-6-methyl-4-oxo-1-(2,2,2-trifluoroethyl)pyridine-3-carboxamide]	–	< 100	< 100
COCCOc1ccc2nccc(Oc3ccc(NC(=O)c4cnc(C)c(-c5ccc(F)cc5)c4O)cc3F)c2n1 [Compound 348, N-[3-fluoro-4-[[6-(2-methoxyethoxy)-1,5-naphthyridin-4-yl]oxy]phenyl]-5-(4-fluorophenyl)-4-hydroxy-6-methylpyridine-3-carboxamide]	–	< 100	< 100
COCCOc1ccc2nccc(Oc3ccc(NC(=O)c4c(C)nc(C)c(-c5ccc(F)cc5)c4O)cc3F)c2n1 [Compound 349, N-[3-fluoro-4-[[6-(2-methoxyethoxy)-1,5-naphthyridin-4-yl]oxy]phenyl]-5-(4-fluorophenyl)-4-hydroxy-2,6-dimethylpyridine-3-carboxamide]	–	< 100	< 100
COc1cc2nccc(Oc3ccc(NC(=O)c4cnc(SC(C)C)n(-c5ccc(F)cc5)c4=O)cc3)c2cc1OC [Compound 539, N-[4-(6,7-dimethoxyquinolin-4-yl)oxyphenyl]-1-(4-fluorophenyl)-6-oxo-2-propan-2-ylsulfanylpyrimidine-5-carboxamide]	–	< 100	–
